In assay [1] the test system is MECP2-deficient neurons. Kind of assay: Quantification of co-localized synaptic puncta (SYN1/PSD-95) on iPS cell-derived neurons. Particulars: vs neurons treated without reverse transcriptase inhibitors, NVP 400 nM. Format: cell-based, human.
Method: Specifically, differentiated nervous system cells derived from normal human iPS cells and iPS cells obtained from patients suffered from Rett syndrome (hereinafter referred to as MECP2-deficient or MECP2-KO because the MECP2 gene was inactivated) were cultured and differentiated into cortical neurons. For differentiation into neurospheres (neural stem cell clusters), NPCs were dissociated from the plate using StemPro Accutase (Life Technologies), and 3-5 million cells were then cultured in suspension on 6-well plates in a shaker incubator at 95 r.p.m. at 37° C. for 48 hours in neural culture (NG) media (DMEM/F12, 1% Glutamax (Life Technologies), 1% N2 Neuroplex (Gemini Bio-products), 2% Gem21 NeuroPlex (Gemini Bio-products), 1% penicillin-streptomycin) supplemented with bFGF (basic Fibroblast Growth Factor, R&D Systems). […]
Quantification of synaptic spots was performed as follows.
Five- to six-week-old neurons were fixed and stained for the following markers: SYN1, postsynaptic density protein 95 (PSD-95), and dendritic marker (MAP2). A fluorescence microscope (Z1 Axio Observer Apotome Zeiss) was used to image the slides by compiling Z stack images taken from changing focus distances. Co-localized SYN1 (presynaptic) and PSD-95 (postsynaptic) were quantified using the compiled Z stack image. […]
Assay [2] relates to MECP2-deficient organoids. Kind of assay: Measurement of cortical organoid diameter. The format is cell-based, human. The settings on record: after 56 days of differentiation.
Method: The cultured iPS cells were dissociated from the plate using a 1:1 Dulbecco's phosphate-buffered saline (DPBS, Fisher Scientific) and StemPro Accutase solution, transferred to 6-well plates, and kept in suspension. Neural induction media consisted of DMEM/F12, 1% Glutamax, 1% N2 Neuroplex, 1% non-essential amino acids (Gibco), 1% penicillin-streptomycin, 1 μM Dorsomorphin (R&D Systems), and 10 μM SB431542 (SB, Stemgent) Neural proliferation media consisted of Neurobasal media (Life Technologies), 2% Gem21 Neuroplex, 1% non-essential amino acids, 1% Glutamax, 20 ng/mL epidermal growth factor (EGF, Peprotech), and 20 ng/mL bFGF. For neuronal maturation, the cells were kept in the same media but the growth factors were withdrawn. Organoid results are combined from four separate batches of differentiation.
(§2) Next, 3TC and d4T were added to the obtained differentiated neural cell culture. The reverse-transcriptase inhibitors for cultured cells were prepared for as follows: Lamivudine (3TC, Sigma-Aldrich) was prepared in dimethyl sulfoxide (DMSO, Sigma Aldrich) and the preparation was added to media so that the final concentration of 3TC was adjusted into 10 μM. […]
Cortical organoids were imaged on an Evos FL Imagine System (ThermoFisher) at 4× magnification. The images were uploaded to Image J and the diameter of each organoid was determined by the program's length measurement function.
Assay [3] concerns MECP2-deficient spheroids. The assay is described as follows: Multi-electrode array (MEA) neural network activity of spheroids. Format: cell-based, human. Particulars: MEA after 4 weeks, chronic treatment.
Method: Next, 3TC and d4T were added to the obtained differentiated neural cell culture. The reverse-transcriptase inhibitors for cultured cells were prepared for as follows: Lamivudine (3TC, Sigma-Aldrich) was prepared in dimethyl sulfoxide (DMSO, Sigma Aldrich) and the preparation was added to media so that the final concentration of 3TC was adjusted into 10 μM. Stavudine (d4T, Sigma-Aldrich) was suspended in water and a final concentration of 1 μM d4T was used in combination with 3TC. […] Control cells (CTRL) contained 10 pjM DMSO as a vehicle control.
The NPCs used to generate spheroids were chronically treated under their respective conditions and plated on multi-electrode array (MEA) planes to measure neural network activity. MEA plates were recorded weekly and analysis of spontaneous neural activity was performed after 4 weeks.
Multi-electrode array (MEA) was performed as follows.
Twelve-well MEA plates (Axion Biosystems) were coated with 100 μg/mL poly-L-ornithine (Sigma-Aldrich) and 5 μg/mL laminin (Life Technologies). Neurospheres generated from NPCs were placed in the center of the MEA wells and the electrodes were fully covered. Neurospheres were plated in NG media supplemented with 1% FBS. […] Media was changed twice a week and recordings were measured one day after the media was changed. […]
The target in assay [4] is L1 reverse transcriptase (Homo sapiens, UniProt O00370). Particulars: Dai et al., BMC Biochemistry 2011, 12:18; cited from earlier work.
Chain of L1 reverse transcriptase (O00370 whole entry, looked up): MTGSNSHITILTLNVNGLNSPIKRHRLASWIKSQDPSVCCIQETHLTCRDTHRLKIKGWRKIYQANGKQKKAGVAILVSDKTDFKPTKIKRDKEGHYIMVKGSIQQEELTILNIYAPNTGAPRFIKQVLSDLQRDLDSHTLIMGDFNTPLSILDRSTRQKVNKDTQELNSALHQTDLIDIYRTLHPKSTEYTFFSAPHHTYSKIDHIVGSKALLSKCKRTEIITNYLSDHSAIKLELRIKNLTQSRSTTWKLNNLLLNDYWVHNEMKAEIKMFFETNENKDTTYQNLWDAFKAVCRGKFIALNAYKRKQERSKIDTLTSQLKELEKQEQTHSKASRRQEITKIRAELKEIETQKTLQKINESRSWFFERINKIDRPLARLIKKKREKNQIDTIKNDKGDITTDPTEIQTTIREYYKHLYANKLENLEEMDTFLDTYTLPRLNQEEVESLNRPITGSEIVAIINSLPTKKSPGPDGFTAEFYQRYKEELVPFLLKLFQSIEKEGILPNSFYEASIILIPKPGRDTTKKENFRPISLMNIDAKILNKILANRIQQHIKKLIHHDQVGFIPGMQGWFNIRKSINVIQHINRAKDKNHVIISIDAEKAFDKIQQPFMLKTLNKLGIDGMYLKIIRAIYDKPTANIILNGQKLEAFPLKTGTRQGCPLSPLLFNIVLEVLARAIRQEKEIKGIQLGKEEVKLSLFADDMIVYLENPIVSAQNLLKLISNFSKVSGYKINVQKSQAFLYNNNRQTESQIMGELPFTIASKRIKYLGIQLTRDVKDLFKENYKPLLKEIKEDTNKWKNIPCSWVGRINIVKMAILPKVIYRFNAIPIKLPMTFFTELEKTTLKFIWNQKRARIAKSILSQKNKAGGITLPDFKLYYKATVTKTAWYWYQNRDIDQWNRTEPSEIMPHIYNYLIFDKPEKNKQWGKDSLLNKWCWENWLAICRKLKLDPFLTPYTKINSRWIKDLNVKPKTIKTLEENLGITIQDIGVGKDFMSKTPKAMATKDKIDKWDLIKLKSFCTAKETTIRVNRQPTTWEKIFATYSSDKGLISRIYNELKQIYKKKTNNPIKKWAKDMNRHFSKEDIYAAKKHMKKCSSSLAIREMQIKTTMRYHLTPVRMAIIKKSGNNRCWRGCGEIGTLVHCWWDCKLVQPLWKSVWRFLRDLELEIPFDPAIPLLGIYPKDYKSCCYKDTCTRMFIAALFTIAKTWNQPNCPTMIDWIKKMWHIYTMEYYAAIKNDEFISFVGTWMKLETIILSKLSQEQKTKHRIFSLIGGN
The subject of assay [5] is MECP2-deficient neurons. The assay is described as follows: Morphological analysis of iPS cell-derived neurons (Neurolucida tracing, Scholl analysis). The format is cell-based, human. The settings on record: 3TC 10 μM in combination with d4T 1 μM, NVP 400 nM.
Method: Specifically, differentiated nervous system cells derived from normal human iPS cells and iPS cells obtained from patients suffered from Rett syndrome (hereinafter referred to as MECP2-deficient or MECP2-KO because the MECP2 gene was inactivated) were cultured and differentiated into cortical neurons. […] For neuronal maturation, the cells were kept in the same media but the growth factors were withdrawn.
The differentiated nervous system cells were maintained for 8 weeks after FGF withdraw.
as §2
Cultured NPCs were transduced with a lentivirus backbone containing Synapsin 1 (SYN) promoter upstream of an EGFP reporter (Nageshappa et al., Mol Psychiatry 21, 178-188 (2016)). […] 11 (MBF Bioscience, Williston, VT) was used to quantify the morphology of the neurons and then to obtain the sum of length of all neurites and dendrites per traced neuron. […] Neuronal complexity was determined by recording the number of intersections within each ring.
Assay [6] deals with HIV reverse transcriptase (Human immunodeficiency virus type 1 group M subtype B, UniProt P04585). Particulars: cited from earlier work.
For assay [7], the system named is MeCP2-KO mice. Kind of assay: Neurological symptom scoring in MeCP2-KO mice. Particulars: 2 mg/ml in drinking water starting at week 4, observed up to 10 weeks, vs vehicle. The format is in vivo. The method, then:
Treatment with reverse transcription inhibitors was performed as follows.
(§1) MeCP2-KO mice (C57BL/6 background) were obtained from Mutant Mouse Resource & Research Centers (MMRRC) (Chen, RZ, Akbarian S, Tudor M and Jaenisch R. Nat Genet 27, 327-331 (2001)). All aspects of animal care and treatment were carried out according to the guidelines of the Experimental Animal Care Committee of Kyushu University.
Mice were maintained in a 12-hour light/dark cycle with free access to food and water. MeCP2-KO mice were divided into three groups of animals, each of which was administered with 3TC (QA-4615, Combi-blocks), d4T (d3580, Tokyo Chemical Industry Co., Ltd.) and vehicle. […]
Neurological symptoms of the mice were scored as described in Guy J, Gan J, Selfridge J, Cobb S and Bird A. Science 315, 1143-1147 (2007). In brief, the mice bred as described above were scored blind to genotype and treatment status, focusing on the six symptoms of mobility, gait, hindlimb clasping, tremor, breathing, and general condition. Each of the six symptoms was scored from 0 to 2:0 corresponds to symptom's being absent or the same as in the wild-type, 1 corresponds to symptom's being present, and 2 corresponds to severe symptom.
Six neurological symptoms scored in each of the three groups of the mice (vehicle, 15 mice; 3TC, 10 mice; d4T, 10 mice) were summed, and observed and recorded for up to 10 weeks.

Assay [8] relates to MeCP2-KO mice. Kind of assay: Survival of MeCP2-KO mice. The format is in vivo. The settings on record: 2 mg/ml in drinking water starting at week 4, vs vehicle. The method, then: as §1
Mice were maintained in a 12-hour light/dark cycle with free access to food and water. MeCP2-KO mice were divided into three groups of animals, each of which was administered with 3TC (QA-4615, Combi-blocks), d4T (d3580, Tokyo Chemical Industry Co., Ltd.) and vehicle. The mice were orally administered with 3TC (2 mg/ml), d4T (2 mg/ml) and vehicle in drinking water, respectively, starting at week 4. As a control, the vehicle-treated MeCP2-KO mice were used. All mice were observed daily.
Next, the survival rate of the mice in each group (vehicle, 20 mice; 3TC, 13 mice; d4T, 13 mice) was examined.

Assay [9] deals with L1. Kind of assay: L1-EGFP vector assay in HEK293. The format is cell-based, human. Particulars: HEK293 with L1-EGFP vector, 20 μM, four days. The method, then:
The reverse transcriptase inhibitors 3TC, d4T and Tenofovir disoproxil Fumarate (TDF), QA-2704, Combi-Blocks) were added to cell lines derived from human fetal kidney cells (HEK293) to a final concentration of 20 μM, and the cells were introduced with a vector (L1-EGFP, Macia et al. Genome Res 27, 335-348 (2017)) in which EGFP protein was expressed in only cells with activated L1. Four days after incubating, immunostaining was performed using antibodies against GFP and Hoechest, which stains nuclei, and images were taken using a fluorescence microscope (Leica AF600) with a 10× objective.

“Also recorded” adds a separate entry of the source. Structures can show the parent of a compound that is named as a salt.

For the compound `Cc1ccnc2c1NC(=O)c1cccnc1N2C1CC1` [NVP, Nevirapine], in assay [1], the “co-localized puncta (synapse formation)” value is “not seen”. The cortical organoid diameter result in [2] is listed as “not seen”. Besides, the “weighted mean firing rate” value in [3] is “significantly decreased”. Moreover, in [4], the “inhibitory activity for L1 reverse transcriptase” value is on record as “does not have any inhibitory activity; also recorded: not to have any L1 reverse transcriptase inhibitory activity”. Moreover, in assay [5], the cell body area result is recorded as “this rescue was not seen” and the “number of branch points” value is given as “this rescue was not seen”. Further, in [6], the “inhibitory activity for HIV reverse transcriptase” value was “has an HIV reverse transcriptase inhibitory activity”.

For `Cc1cn([C@H]2C=C[C@@H](CO)O2)c(=O)[nH]c1=O` [d4T, stavudine], the “Rett symptoms (summed score of six neurological symptoms)” value in [7] is given as “Significant reductions”. Moreover, in assay [8], the survival rate entry is listed as “Significant life extensions”. Moreover, in assay [9], the “percentage of EGFP-positive cells” value was “decrease”.

Turning to `CC(C)OC(=O)OCOP(=O)(CO[C@H](C)Cn1cnc2c(N)ncnc21)OCOC(=O)OC(C)C` [TDF, Tenofovir disoproxil Fumarate], the “percentage of EGFP-positive cells” value in assay [9] is reported as “decrease”.

With `O=C1Nc2ccc(Cl)cc2[C@@](C#CC2CC2)(C(F)(F)F)O1` [efavirenz, Efavirenz], the “inhibitory activity for L1 reverse transcriptase” value in assay [4] was “have an inhibitory activity”.

Take `CC(C)Nc1cccnc1N1CCN(C(=O)c2cc3cc(NS(C)(=O)=O)ccc3[nH]2)CC1` [delavirdine]: the “inhibitory activity for L1 reverse transcriptase” value in [4] was “have an inhibitory activity”.

(Values after patent publication US20240277712A1, “TREATMENT AND PREVENTION OF DEVELOPMENTAL DISORDERS AND MENTAL DISEASES” (KYUSHU UNIVERSITY, NATIONAL UNIVERSITY CORPORATION, priority 2020, published 2024).)
